Eight compounds from US10877026B2, “Blood brain barrier models and methods to generate and use the same” (Purdue Research Foundation, priority 2016, dated 2020) can be followed below.

Where two headings read alike, the source gives them in different places.

For data set [1], the system named is direct-contact triculture of astrocytes, pericytes and hCMEC/D3 cells.
Data set [2] can be described thus: in vitro. The conditions noted are these: human. As for the experimental part: (§1) For human astrocyte monocultures, 4×10^4 cells were seeded onto Transwells® coated with 2 μg/cm^2 poly-L-lysine and grown for 9 days prior to permeability studies.
(§2) Before all permeability studies, cells were washed twice with PBS before equilibrating in HBSS for 20 minutes shortly before the study. After study initiation, 100 μL samples were taken at 15, 30, 45, 60, and 90 minute time points. 4 mL of scintillation cocktail was added for analysis by scintillation counting.

A short description of data set [3]: Apparent permeability across human astrocyte monoculture. It counts as in vitro ADME. The settings on record: human; astrocytes grown in monoculture. The procedure: as §1
(§3) . Before all permeability studies, cells were washed twice with PBS before equilibrating in HBSS for 20 minutes shortly before the study. After study initiation, 100 μL samples were taken at 15, 30, 45, 60, and 90 minute time points. 4 mL of scintillation cocktail was added for analysis by scintillation counting.

The subject of data set [4] is human astrocyte monolayers. The description is as above. It counts as in vitro ADME. As for the experimental part:
as §1, §3

Data set [5] is described as follows: in vitro. The settings on record: human. The source holds these as a separate data set.
The test system of data set [6] is direct contact coculture. The experiment in a line: MTT cell viability assay. It counts as cell-based, human. The conditions noted are these: n=6. The procedure:
Cell viability in the presence of various HEPES concentrations was inferred by the mitochondrial oxidation of 3-(4,5-dimethylthiazol-2-yl)-2,5-diphenyltetrazolium bromide (MTT) dye. The direct contact coculture was plated in a 96-well plate following the same methods as stated above. On Day 7 post hCMEC/D3 plating, media containing HEPES was removed and replaced with 190 μL, fresh media and 10 μL of 5 mg/mL MTT and incubated at 37° C. with 5% CO2 for 4 hours. MTT was then removed and replaced with 200 μL DMSO and left agitating at room temperature for 1 hour. Absorbance at 570 nm was determined using a plate reader. Cell viability was normalized to 10 mM HEPES control. Assays were performed with n=6.
For orientation: Tetrazolium dyes change colour on reduction, which living cells bring about.

The test system of data set [7] is hCMEC/D3 monoculture. Nature of the data set: Apparent permeability across hCMEC/D3 monoculture on Transwell. As for the experimental part: as §1, §2
In data set [8] the test system is direct-contact triculture of astrocytes, pericytes and hCMEC/D3 cells. Nature of the data set: Permeability across direct-contact triculture BBB model. The conditions noted are these: hCMEC/D3 monoculture as control, n=5, FIG. 9.
For data set [9], the system named is direct contact coculture of human astrocytes and hCMEC/D3 cells. Nature of the data set: Apparent permeability across direct contact coculture on Transwell. The conditions noted are these: for apparent permeability, reproducibility: different passage number.
The target of data set [10] is T1, Pgp (Homo sapiens, UniProt P08183).
T1 construct: endogenous in cells; host or cells: hCMEC/D3 monoculture, astrocyte-pericyte coculture and triculture
T1 sequence (P08183 whole entry): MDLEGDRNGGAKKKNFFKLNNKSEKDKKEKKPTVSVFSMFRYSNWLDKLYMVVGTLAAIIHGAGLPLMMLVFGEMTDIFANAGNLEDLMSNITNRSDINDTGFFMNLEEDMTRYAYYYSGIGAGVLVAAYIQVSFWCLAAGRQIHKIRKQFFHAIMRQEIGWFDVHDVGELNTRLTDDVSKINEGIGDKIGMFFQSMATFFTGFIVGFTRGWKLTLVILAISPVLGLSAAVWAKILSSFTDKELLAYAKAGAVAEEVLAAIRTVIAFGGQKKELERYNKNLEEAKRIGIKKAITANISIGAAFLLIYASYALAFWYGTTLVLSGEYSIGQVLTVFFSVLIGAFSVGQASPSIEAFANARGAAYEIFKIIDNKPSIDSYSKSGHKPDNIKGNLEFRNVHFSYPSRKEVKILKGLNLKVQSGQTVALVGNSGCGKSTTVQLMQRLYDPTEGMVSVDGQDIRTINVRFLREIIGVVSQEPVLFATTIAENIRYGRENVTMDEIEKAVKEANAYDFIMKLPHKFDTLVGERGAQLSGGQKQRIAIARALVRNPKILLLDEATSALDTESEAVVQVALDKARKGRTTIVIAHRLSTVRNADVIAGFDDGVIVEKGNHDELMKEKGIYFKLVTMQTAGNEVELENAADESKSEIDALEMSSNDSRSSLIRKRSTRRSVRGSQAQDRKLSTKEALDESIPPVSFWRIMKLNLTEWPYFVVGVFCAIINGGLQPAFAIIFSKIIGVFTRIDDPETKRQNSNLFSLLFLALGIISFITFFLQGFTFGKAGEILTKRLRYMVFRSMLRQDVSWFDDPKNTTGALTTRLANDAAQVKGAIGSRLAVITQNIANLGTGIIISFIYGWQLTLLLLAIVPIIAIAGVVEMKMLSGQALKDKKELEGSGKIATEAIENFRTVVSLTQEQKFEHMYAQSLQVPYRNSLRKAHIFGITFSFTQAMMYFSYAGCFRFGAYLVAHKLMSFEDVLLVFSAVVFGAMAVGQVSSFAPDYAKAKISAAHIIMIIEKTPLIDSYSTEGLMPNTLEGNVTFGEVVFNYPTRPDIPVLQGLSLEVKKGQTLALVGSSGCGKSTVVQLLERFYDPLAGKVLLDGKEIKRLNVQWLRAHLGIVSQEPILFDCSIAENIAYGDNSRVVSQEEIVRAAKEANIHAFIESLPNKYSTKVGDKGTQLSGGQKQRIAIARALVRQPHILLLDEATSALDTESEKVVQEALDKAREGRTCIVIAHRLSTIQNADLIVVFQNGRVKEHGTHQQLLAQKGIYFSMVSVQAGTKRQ
Nature of the data set: Drug-interaction of elacridar and digoxin in BBB culture models. The conditions noted are these: triculture versus hCMEC/D3 monoculture or astrocyte-pericyte co-culture, FIG. 17. It counts as cell-based.

Data set [11] deals with direct contact coculture of human astrocytes and hCMEC/D3 cells.
In data set [12] the test system is co-culture of astrocytes and pericytes. Nature of the data set: Mannitol permeability across mono- or co-cultures of astrocytes and pericytes. It counts as in vitro ADME.

Regarding `CC(=O)O[C@H]1C(=O)[C@@]2(C)[C@H]([C@H](OC(=O)c3ccccc3)[C@]3(O)C[C@H](OC(=O)[C@H](O)[C@@H](NC(=O)c4ccccc4)c4ccccc4)C(C)=C1C3(C)C)[C@]1(OC(C)=O)CO[C@@H]1C[C@@H]2O` [paclitaxel], the “transcellular permeability across the BBB-triculture relative to L-histidine” value in [1] is listed as “significantly slower than L-histidine”.

Broadly, the Papp A→B is the apparent permeability from the apical to the basolateral side of a cell layer. As to `CC(C)NCC(O)COc1cccc2ccccc12` (stereo not drawn) [Propranolol], the results for the Papp A→B at 90 min, 0.25 μCi/mL in data set [2], in data set [3] and in data set [5] (apparent permeability) were 19.1 ± 1.9 ×10⁻⁶ cm/s, 45.8 ± 4.1 ×10⁻⁶ cm/s and 16.1 ± 0.4 ×10⁻⁶ cm/s, respectively. Also, the “fold lower permeability in hCMEC/D3 and direct contact coculture than in astrocyte monoculture” value in [4] is listed as roughly 3 fold. Moreover, in data set [1], the “transcellular permeability across the BBB-triculture relative to L-histidine” value was “significantly slower than L-histidine”.

Consider `O=S(=O)(O)CCN1CCN(CCO)CC1` [HEPES, 4-(2-hydroxyethyl)-1-piperazineethanesulfonic acid], for which the “change in cell viability (MTT)” value is listed as −8.2±2.0% in [6] (25 mM HEPES in comparison to 10 mM HEPES control) and −28.4±2.6% in data set [6] (50 mM HEPES compared to 10 mM HEPES control).

Inulin: the apparent permeability is listed as 8.46±0.02 ×10^−6 cm/s in data set [7] (hCMEC/D3 monoculture, n=3) and 7.55±0.3 ×10^−6 cm/s in [9] (direct contact coculture, n=3). For the same compound, the “decrease in permeability, mono- versus tri-culture” value in [8] was found to be 8 fold. Also, the Papp in [9] (Table 4, values match the direct contact coculture) is recorded as 0.754 ± 0.030 ×10^−5 cm/s. Besides, the results for the “apparent permeability, reproducibility” value in data set [9] (first additional independent experiment) and in data set [9] (second additional independent experiment) were 7.51±0.01 ×10^−6 cm/s and 7.94±0.03 ×10^−6 cm/s, respectively.

On to `COc1cc2c(cc1OC)CN(CCc1ccc(NC(=O)c3cccc4c(=O)c5cccc(OC)c5[nH]c34)cc1)CC2` [elacridar], for which the “inhibition of Pgp function (digoxin)” value in data set [10] was “more difficult to inhibit Pgp function in the triculture”.

For the compound `Cc1ncc(C[n+]2csc(CCO)c2C)c(N)n1` [Thiamine], the “transcellular permeability across the BBB-triculture relative to L-histidine” value in data set [1] was “significantly slower than L-histidine”.

Regarding `NC(N)=O` [Urea], in [7], the apparent permeability is 2.96±0.11 ×10^−5 cm/s. For the same compound, in data set [11], the Papp is listed as 2.43 ± 0.155 ×10^−5 cm/s and the apparent permeability was 2.43±0.15 ×10^−5 cm/s.

Consider `OC[C@@H](O)[C@@H](O)[C@H](O)[C@H](O)CO` [Mannitol], for which, in [12] (co-culture of astrocytes and pericytes versus astrocytes monoculture, FIG. 8B, n=6), the effective permeability result is reported as “lower in comparison to monoculture of astrocytes”. The apparent permeability result in [12] (co-culture versus astrocytes or pericytes alone, FIG. 8A) was “lower in the co-culture of astrocytes and pericytes”. Further, the “decrease in permeability, mono- versus tri-culture” value in data set [1] (human, 90 min, 0.25 μCi/mL) turned out to be 1.5 fold. The Papp A→B at 90 min, 0.25 μCi/mL turned out to be 15.2 ± 0.69 ×10⁻⁶ cm/s in data set [5] (Papp) and 15.2 ± 0.7 ×10⁻⁶ cm/s in [5] (apparent permeability).
